Reference: patent US12503452B2 (Curza Global, LLC, priority 2019, dated 2025)
Where a name gives a salt, the structure may show the parent alone. Read-outs that look alike come from different tables or passages of the source.

What was measured:
[1] = test system: E. coli S30 extract (bacterial protein synthesis); assay: E. coli S30 extract coupled transcription-translation luciferase assay (inhibition of bacterial protein synthesis); assay type: biochemical; settings: read-out: S30 IC50 (μM/% inhib.)
Procedure, shortened: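 Cell-free coupled transcription-translation in E. coli S30 circular-DNA extract, with pBESTluc plasmid as template and complete amino acid mix. Eight 2-fold compound dilutions were incubated with the extract 1 h at 37 °C, chilled, then luciferase luminescence was read. % inhibition was taken relative to no-inhibitor wells; no-DNA wells gave background.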

[2] = target: Rabbit Reticulocyte Lysate (eukaryotic protein synthesis); assay: Rabbit reticulocyte lysate luciferase assay (inhibition of eukaryotic protein synthesis); assay type: biochemical; settings: read-out: Rabbit reticulocyte IC50 (μM/% inhib.)
Procedure, shortened: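 Nuclease-treated rabbit reticulocyte lysate translating luciferase control RNA, with complete amino acids, was incubated at 30° C. for 90 minutes with 2-fold serial compound dilutions. Luminescence was measured after adding luciferase reagent. % inhibition was relative to water controls, with no-RNA wells as background.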

A. baumannii (Ab) = assay: Broth microdilution minimum inhibitory concentration (MIC); assay type: cell-based; settings: for MIC: Acinetobacter baumannii, read-out: Ab + bicarb MIC
Procedure, shortened: (§1)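 CLSI broth microdilution with 8 two-fold compound dilutions in CAMHB, or CAMHB plus sodium bicarbonate (6.25 or 25 mM final) or heat-inactivated human serum (0–50%). Inoculum 5×10^4 CFU/well from 0.5 McFarland cultures grown at 35±2° C; tested in triplicate.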

E. coli (Ec) = assay: as above; assay type: cell-based; settings: for MIC: Escherichia coli, read-out: E. coli + bicarb MIC
Procedure, shortened: as §1

E. faecalis (Ef) = assay: as above; assay type: cell-based; settings: for MIC: Enterococcus faecalis, read-out: Ef + bicarb MIC
Procedure, shortened: as §1

P. aeruginosa (Pa) = assay: as above; assay type: cell-based; settings: for MIC: Pseudomonas aeruginosa, read-out: Pa MIC + bicarb
Procedure, shortened: as §1

S. aureus (Sa) = assay: as above; assay type: cell-based; settings: for MIC: Staphylococcus aureus, read-out: Sa + bicarb MIC
Procedure, shortened: as §1

[3] = class by IC50 or % inhibition @ 1 μM
[4] = A. baumannii, growth medium with sodium bicarbonate
[5] = E. coli, growth medium with sodium bicarbonate
[6] = E. faecalis, growth medium with sodium bicarbonate
[7] = P. aeruginosa, growth medium with sodium bicarbonate
[8] = S. aureus, growth medium with sodium bicarbonate
[9] = A. baumannii, growth medium supplemented with sodium bicarbonate
[10] = E. coli, growth medium supplemented with sodium bicarbonate
[11] = E. faecalis, growth medium supplemented with sodium bicarbonate
[12] = P. aeruginosa, growth medium supplemented with sodium bicarbonate
[13] = S. aureus, growth medium supplemented with sodium bicarbonate

| SMILES | IC50 [1, 3] [µM] | IC50 [2, 3] [µM] | MIC (A. baumannii (Ab); [4]) [µg/mL] | MIC (E. coli (Ec); [5]) [µg/mL] | MIC (E. faecalis (Ef); [6]) [µg/mL] | MIC (P. aeruginosa (Pa); [7]) [µg/mL] | MIC (S. aureus (Sa); [8]) [µg/mL] | MIC (A. baumannii (Ab); [9]) [µg/mL] | MIC (E. coli (Ec); [10]) [µg/mL] | MIC (E. faecalis (Ef); [11]) [µg/mL] | MIC (P. aeruginosa (Pa); [12]) [µg/mL] | MIC (S. aureus (Sa); [13]) [µg/mL] | other results |
| --- | --- | --- | --- | --- | --- | --- | --- | --- | --- | --- | --- | --- | --- |
| CCN(C(C)Cc1ccc(-n2ccc(NC(=O)N3CCN(C(=O)C(C)(C)N)CC3)nc2=O)cc1)[C@H]1CC[C@H](N)C1 (stereo partly shown) [Compound 164] | < 0.5 | > 1 | 8 to 32 | < 8 | < 8 | > 32 | < 8 |  |  |  |  |  |  |
| CC(C)(N)C(=O)N1CCN(C(=O)Nc2ccn(-c3ccc(CN4CC[C@@H](CN)C4)cc3)c(=O)n2)CC1 [Compound 243] | < 0.5 | > 1 | > 32 | < 8 | 8 to 32 | > 32 | < 8 |  |  |  |  |  |  |
| CC(C)N(Cc1ccc(-n2ccc(NC(=O)N3CCN(C(=O)C(C)(C)N)CC3)nc2=O)cc1)C1CCC(N)CC1 (stereo not shown) [Compound 356] |  |  | > 32 | > 32 | > 32 | > 32 | > 32 |  |  |  |  |  | IC50 ([1]; % inhibition @ 1 μM): > 1 µM; IC50 ([2]; % inhibition @ 1 μM): > 1 µM |
| CC(Cc1ccc(-n2ccc(NC(=O)N3CCN(C(=O)C(C)(C)N)CC3)nc2=O)cc1)N(C)[C@H]1CC[C@@H](N)CC1 (stereo partly shown) [Compound 176] | < 0.5 | > 1 |  |  |  |  |  |  |  |  |  |  | Ab + bicarb MIC (A. baumannii (Ab); [4]): + (An MIC value (μg/mL) that is 32 μg/mL or greater); E. coli + bicarb MIC (E. coli (Ec); [5]): +++ (An MIC value (μg/mL) that is less than 8 μg/mL); Ef + bicarb MIC (E. faecalis (Ef); [6]): +++ (An MIC value (μg/mL) that is less than 8 μg/mL); Pa MIC + bicarb (P. aeruginosa (Pa); [7]): + (An MIC value (μg/mL) that is 32 μg/mL or greater); Sa + bicarb MIC (S. aureus (Sa); [8]): +++ (An MIC value (μg/mL) that is less than 8 μg/mL) |
| C[C@@H]1CN(C(=O)C(C)(C)N)CCN1C(=O)Nc1ccn(-c2ccc(CN3CCC(N)CC3)cc2)c(=O)n1 [Compound 61] | < 0.5 | > 1 |  |  |  |  |  | > 32 | < 8 | 8 to 32 | > 32 | < 8 |  |
| CC(Cc1ccc(-n2ccc(NC(=O)N3CCN(C(=O)C(C)(C)N)CC3)nc2=O)cc1)NC1CCC(CN)CC1 (stereo not shown) [Compound 152] | > 1 | > 1 |  |  |  |  |  | > 32 | < 8 | > 32 | > 32 | < 8 |  |
| CC(Cc1ccc(-n2ccc(NC(=O)N3CCN(C(=O)C(C)(C)N)CC3)nc2=O)cc1)N[C@H]1CC[C@H](N)CC1 (stereo partly shown) [Compound 171] | > 1 | > 1 | > 32 | < 8 | > 32 | > 32 | 8 to 32 |  |  |  |  |  |  |
| CC(C)(N)C(=O)N1CCN(C(=O)Nc2ccn(-c3ccc(C4CO[C@@H](CN)CN4)cc3)c(=O)n2)CC1 (stereo partly shown) [Compound 352, hydrochloride salt] |  |  |  |  |  |  |  |  |  |  |  |  | IC50 ([1]; % inhibition @ 1 μM): < 0.5 µM; IC50 ([2]; % inhibition @ 1 μM): > 1 µM; MIC (A. baumannii (Ab)): > 32 µg/mL; MIC (E. coli (Ec)): 8 to 32 µg/mL; MIC (E. faecalis (Ef)): > 32 µg/mL; MIC (P. aeruginosa (Pa)): > 32 µg/mL; MIC (S. aureus (Sa)): > 32 µg/mL |
| CC(N)C1CCN(Cc2ccc(-n3ccc(NC(=O)N4CCN(C(=O)C(C)(C)N)CC4)nc3=O)cc2)CC1 (stereo not shown) [Compound 247] | < 0.5 | > 1 | > 32 | < 8 | < 8 | > 32 | < 8 |  |  |  |  |  |  |
| CC1CN(Cc2ccc(-n3ccc(NC(=O)N4CCN(C(=O)C(C)(C)N)CC4)nc3=O)cc2)CCC1N (stereo not shown) [Compound 251] | < 0.5 | > 1 | > 32 | < 8 | < 8 | > 32 | < 8 |  |  |  |  |  |  |
| CC(N)C1CCN(Cc2ccc(-n3ccc(NC(=O)N4CCN(C(=O)[C@@](C)(N)CO)[C@H](C)C4)nc3=O)cc2)CC1 (stereo partly shown) [Compound 70] | < 0.5 | > 1 |  |  |  |  |  | > 32 | < 8 | < 8 | > 32 | < 8 |  |
| CC(C)(N)C(=O)N1CCN(C(=O)Nc2ccn(-c3ccc(CCN[C@H]4CC[C@H](N)CC4)cc3)c(=O)n2)CC1 [Compound 180] | 0.5 to 1 | > 1 | > 32 | < 8 | > 32 | > 32 | 8 to 32 |  |  |  |  |  |  |
| CC(Cc1ccc(-n2ccc(NC(=O)N3CCN(C(=O)C(C)(C)N)CC3)nc2=O)cc1)N[C@H]1CC[C@@H](N)C1 (stereo partly shown) [Compound 150] | 0.5 to 1 | > 1 |  |  |  |  |  | > 32 | < 8 | > 32 | > 32 | < 8 |  |
| CC(N)C1CCN(CCc2cccc(-n3ccc(NC(=O)N4CCN(C(=O)C(C)(C)N)CC4)nc3=O)c2)CC1 (stereo not shown) [Compound 34] | < 0.5 | > 1 |  |  |  |  |  | > 32 | < 8 | < 8 | > 32 | < 8 |  |
| CC(C)(N)C(=O)N1CCN(C(=O)Nc2ccn(-c3ccc(C[C@@H](N)C(=O)N4CCCC(N)CC4)cc3)c(=O)n2)CC1 (stereo partly shown) [Compound 143] | > 1 | > 1 |  |  |  |  |  | > 32 | > 32 | > 32 | > 32 | > 32 |  |
| Cc1cc(-n2ccc(NC(=O)N3CCN(C(=O)C(C)(C)N)CC3)nc2=O)ccc1CCN1CCCC(N)CC1 (stereo not shown) [Compound 140] | < 0.5 | > 1 |  |  |  |  |  | 8 to 32 | < 8 | < 8 | 8 to 32 | < 8 |  |
| CCN(Cc1ccc(-n2ccc(NC(=O)N3CCN(C(=O)C(C)(C)N)CC3)nc2=O)cc1F)[C@H]1CC[C@H](N)CC1 [Compound 355] |  |  |  |  |  |  |  |  |  |  |  |  | IC50 ([1]; % inhibition @ 1 μM): < 0.5 µM; IC50 ([2]; % inhibition @ 1 μM): > 1 µM; MIC (A. baumannii (Ab)): > 32 µg/mL; MIC (E. coli (Ec)): < 8 µg/mL; MIC (E. faecalis (Ef)): < 8 µg/mL; MIC (P. aeruginosa (Pa)): > 32 µg/mL; MIC (S. aureus (Sa)): < 8 µg/mL |
| CC(C)(N)C(=O)N1CCN(C(=O)Nc2ccn(-c3ccc(CN(CCO)[C@H]4CC[C@H](N)CC4)cc3)c(=O)n2)CC1 [Compound 132] | < 0.5 | > 1 |  |  |  |  |  | > 32 | < 8 | > 32 | > 32 | < 8 |  |
| Cc1cc(NC(=O)N2CCN(C(=O)C(C)(C)N)CC2)nc(=O)n1-c1ccc(CN2CCC(N)CC2)cc1 [Compound 292, hydrochloride salt] | > 1 | > 1 |  |  |  |  |  |  |  |  |  |  | MIC (A. baumannii (Ab)): > 32 µg/mL; MIC (E. coli (Ec)): > 32 µg/mL; MIC (E. faecalis (Ef)): > 32 µg/mL; MIC (P. aeruginosa (Pa)): > 32 µg/mL; MIC (S. aureus (Sa)): > 32 µg/mL |
| CC(C)(N)C(=O)N1CCN(C(=O)Nc2ccn(-c3ccc(CN4CCC(N)CC4)cc3)c(=O)n2)CC1 [Compound 57] | < 0.5 | > 1 |  |  |  |  |  | > 32 | < 8 | 8 to 32 | > 32 | < 8 |  |
| CCN(Cc1ccc(-n2ccc(NC(=O)N3CCN(C(=O)C4(N)CCC4)CC3)nc2=O)cc1)C1CCC(N)CC1 (stereo not shown) [Compound 315, hydrochloride salt] | > 1 | > 1 |  |  |  |  |  |  |  |  |  |  | MIC (A. baumannii (Ab)): > 32 µg/mL; MIC (E. coli (Ec)): 8 to 32 µg/mL; MIC (E. faecalis (Ef)): > 32 µg/mL; MIC (P. aeruginosa (Pa)): > 32 µg/mL; MIC (S. aureus (Sa)): 8 to 32 µg/mL |
| CC1C[C@@H](N(C)Cc2ccc(-n3ccc(NC(=O)N4CCN(C(=O)C(C)(C)N)CC4)nc3=O)cc2)CC[C@@H]1N (stereo partly shown) [Compound 337] | < 0.5 | > 1 | > 32 | < 8 | 8 to 32 | > 32 | < 8 |  |  |  |  |  |  |
| CC1(CN)CCN(Cc2ccc(-n3ccc(NC(=O)N4CCN(C(=O)C(C)(C)N)CC4)nc3=O)cc2)CC1 [Compound 249] | < 0.5 | > 1 | > 32 | < 8 | 8 to 32 | > 32 | < 8 |  |  |  |  |  |  |
| C[C@@](N)(CO)C(=O)N1CCN(C(=O)Nc2ccn(-c3ccc(CCN4CCC(N)CC4)cc3)c(=O)n2)CC1 [Compound 199] | < 0.5 | > 1 | > 32 | < 8 | > 32 | > 32 | 8 to 32 |  |  |  |  |  |  |
| CC(C)(N)C(=O)N1CCN(C(=O)Nc2ccn(-c3ccc(OCCN4CCCC(N)CC4)cc3)c(=O)n2)CC1 (stereo not shown) [Compound 187] | < 0.5 | > 1 | 8 to 32 | < 8 | < 8 | > 32 | < 8 |  |  |  |  |  |  |
